Experimental data taken from patent US6605595B1, “Avermectin derivatives” (The Kitasato Institute, priority 1999, dated 2003).

Legend:
Caenorhabditis elegans = assay: Antiparasitic activity against Caenorhabditis elegans, 96 well microplate (MIC); assay type: in vivo; settings: 20° C., observed after 24 and 48 hours
Excerpt: (§1) As model insects for simple determination of antiparasitic and insecticidal activities, those insects are desired which can be easily obtained and bred in laboratories, and have no pathogenicity to a human. Caenorhabditis elegans, an unparasitic eelworm widely used in experiments of genetics, was used as a typical steam worm, and Artemia salina used as feed for tropical fish and named Brine shrimp, was used instead of insects.
Escherichia. coli for the feed of Caenorhabditis elegans (mutant having uracil requirement) was inoculated in a seed medium for E. coli to which a small amount of uracil was added, and cultured with shaking at 27° C. for 1 day. A petri dish of 6 cm diameter was filled with 10 ml of an agar medium for eelworm proliferation, and the medium was solidified. Then 0.5 ml of the culture of E. coli was spread over the medium in the dish, and the dish was incubated at 37° C. to proliferate E. coli. A piece of the agar was collected with a platinum loop from a petri dish in which Caenorhabditis elegans successfully proliferated, and inoculated in petri dishes in which E. coli was proliferated. The petri dishes were incubated at 20° C. to proliferate Caenorhabditis elegans. Since the life of eelworm is about 2 weeks, subculture was carried out every once a week. The eelworms grown with spread on the surface of the petri dish after 3 to 5 days from subculture were used for the experiments.
The agar medium for eelworm proliferation was prepared by mixing the solutions in the following proportion: Solution A: 100 ml, Solution B: 0.1 ml, Solution C: 0.05 ml, Solution D: 0.1 ml and Solution E: 2.5 ml (without pH adjustment), and dispensing each 10 ml portion into petri dishes of 60×15 mm.
In distilled water, 2.0% of bact-trypton (DIFCO Co.), 0.55% of sodium chloride and 0.001% of uracil (SIGMA Co., pH 7.4) were dissolved, and the solution was sterilized in an autoclave at 121° C. for 20 minutes.
(§2) Each well of a 96 well microplate was filled with the solution of the test compound (methanol as a solvent), and the solvent was removed using a vacuum pump, then 250 μl of the assay medium was added to each wells (the assay medium was prepared by dissolving 7.5 mM sodium hydrogencarbonate, 7.5 mM potassium chloride, 7.5 mM calcium chloride dihydrate and 7.5 mM magnesium sulfate heptahydrate in distilled water and adding 0.01% of lecithin thereto), and then the microplate was shaken using a microplate mixer for 15 minutes. To each well, a few individuals of Caenorhabditis elegans were added by softly rubbing the surface of the agar using a toothpick, or a few individuals of Artemia salina were added together with 50 μl of the buffer. The microplate was incubated at 20° C., and then the insects were observed after 24 and 48 hours under a microscope (magnification of 40×). The results were compared to those obtained without addition of the test compound, and evaluated by 4 grades.
(§3) The evaluation results were shown by indications of 4 grades from 0 to 3.
(§4) 1: A little week movements
(§5) Of the 4 grades, Indications 3 and 2 were judged as effective, and Indications 1 and 0 as ineffective. In Table 9, the values for each compound are minimum inhibitory concentrations (MIC) which were required to give Indication 2 (or 3) for Caenorhabditis elegans or Artemia salina. In Table 9, Caenorhabditis elegans and Artemia salina are abbreviated as C.E. and A.S., respectively.

Heterakis spumosa = assay: In vivo experiments with Heterakis spumosa in mice; set-up: key: 3 represents cure (no parasites detectable); 2 effective (<20% of parasites remaining); 1 trace effect (< of parasites remaining); 0 ineffective (>50% of parasites remaining); settings: orally 4 times, mice infected with H. spumosa
Experimental: In vivo experiments with Heterakis spumosa
For the experiments male mice (strain Bor CFW, 25-30 g of body weight on receipt) were housed in Macrolon cages (3 mice per cage) and provided with water and SNIFF rat feed (10-mm pellets) ad libitum. Mice were infected with H. spumosa by oral application of 90 embryonated eggs. The eggs were obtained from female Heterakis. isolated from mouse colon 40 days after infection followed by additional three weeks incubation at 37° C. The mice were treated orally 4 times with the compounds at the dosages of 1, 0.5, 0.25, 0.1, 0.05 and 0.025 mg/kg between days 46 and 49 after infection. Compounds were suspended in Cremophor EL. Infected control mice served as untreated controls which only received Cremophor EL. Mice were killed eight days after treatment (i.e. on day 57 after infection) with carbon dioxide and cecum and colon were dissected. The number of worms which have resided in the cecum and colon were counted macroscopically. The ratios of the number of expelled worms in percent of the total number of worms was defined as level of the anthelmintic activity. Activity was evaluated on a scale 0-3 where 3 represents cure (no parasites detectable), 2 effective (<20% of parasites remaining), 1 trace effect (< of parasites remaining) and 0 ineffective (>50% of parasites remaining).

[1] = test system: Adult Ctenocephalides felis; assay: Test on cat fleas / oral absorption; assay type: in vivo; settings: after 24 hours
Experimental: Test on cat fleas/oral absorption
Test animals: Adult Ctenocephalides felis
Solvent: Dimethylsulfoxide (DMSO)
20 μl of this formulation are added to 4 ml of citrated cow's blood and stirred.
20 starved adult fleas (of “Georgi” species of Ctenocephalides felis) are introduced into a chamber (of a diameter of 5 cm) which is sealed with gauze at the top and bottom. A metal cylinder, whose base is sealed with parafilm, is placed on the chamber. […] Whereas the blood is heated to 37° C. a temperature of 25° C. is adjusted in the region of the flea chambers. Controls are mixed with the same volume of DMSO without the addition of any of the compounds. The test are repeated three times.
After 24 hours the mortality is determined in %.

Artemia salina = assay: Insecticidal model activity against Artemia salina (brine shrimp), 96 well microplate (MIC); assay type: in vivo; settings: 20° C., observed after 24 and 48 hours
Excerpt: as §1
To a buffer for Artemia salina (obtained by dissolving 0.24% of Tris, 2.57% of sodium chloride, 0.47% of magnesium chloride, 0.07% of potassium chloride, 0.02% of sodium carbonate, 0.64% of magnesium sulfate and 0.11% of calcium chloride in distilled water and adjusting the pH to 7.1 with hydrochloric acid), dried eggs of Artemia salina [Tetra Brine Shrimp Eggs, Warner Lambert Co.] were added. The noprius larvae 1 or 2 days after hatching were used for the experiments.
as §2, §3, §4, §5

Lucilia cuprina larvae = assay: Blowfly larvae test / development-inhibiting activity; assay type: in vivo
Experimental: Blowfly larvae test/Development-inhibiting activity
Test animals: Lucilia cuprina larvae
(§6) Solvent: Dimethylsulfoxide
20 mg of active compound are dissolved in one ml of dimethylsulfoxide. In order to prepare a suitable formulation the active compound solution is diluted with water to the concentration required in each case.
Approx. 20 Lucilia cuprina larvae are introduced into a test tube containing approx. 1 cm^3 of horse-meat and 0.5 ml of the active compound preparation to be tested. After 48 hours the activity of the active compound preparation is determined. The test tubes are transferred to beakers with a sand-covered base. After a further 2 days the test tubes are removed and the pupae counted.
The activity of the active compound preparation is assessed according to the number of flies which have hatched after 1.5 times the development period of an untreated control. 100% means that no flies have hatched: 0% means that all of the flies have hatched normally.

Nematospiroides dubius = assay: In vivo experiments with Nematospiroides dubius in mice; set-up: key: 3 represents cure (no parasites detectable); 2 effective (<20% of parasites remaining); 1 trace effect (< of parasites remaining); 0 ineffective (>50% of parasites remaining); settings: orally 4 times, mice infected with N. dubius larvae
[2] = test system: Third larval stages of Periplaneta americana; assay: Test on cockroaches, immersion process; assay type: in vivo; settings: immersion 60 seconds, time of reading not stated (2 and 24 hours, 7 days)
Experimental: Test on cockroached—Immersion process
Test animals: Third larval stages of Periplaneta americana
as §6
20 mg of active compound are dissolved in one ml of dimethylsulfoxide. In order to prepare a suitable formulation the solution of active compound is diluted with water to the concentration required in each case.
20 ml of this preparation of active compound are pipetted into tubes (of a diameter of 1.5 cm and a height of 10 cm). 4 cockroach larvae are intoxicated with CO2 and transferred to a tube (of a diameter of 1.2 cm and a height of 9 cm) containing 3 holes (in the base and 5 cm below the upper rim). The tube is sealed with a stopper and kept at room temperature for 30 minutes until all of the cockroach larvae again display normal activity. The tube is immersed in the active compound formulation for 60 seconds, during which period all of the cockroach larvae are completely coverd. After the liquid has drained off the cockroach larvae are transferred to filter discs in cans made of PP (of a diameter of 9.7 cm and a height of 8 cm height).
After 2 and 24 hours and after 7 days the activity of the active compound formulation is determined. 100% means that all of the cockroach larvae have been destroyed; 0% means that none of the cockroach larvae have been destroyed.

[3] = 100 ppm in citrated cow's blood

## CCOC(=O)C=C1C(C)OC(OC2C(C)OC(OC3C(C)=CCC4CC(CC5(C=CC(C)C(C(C)CC)O5)O4)OC(=O)C4C=C(C)C(O)C5OCC(=CC=CC3C)C45O)CC2OC)CC1OC (stereo not shown) [Compound 2]
Caenorhabditis elegans
  C.E. minimum inhibitory concentration (MIC) required to give Indication 2 (or 3): 0.01 µg/mL
Heterakis spumosa; 0.05 mg/kg
  anthelmintic activity score (scale 0-3): 2 (2 effective (<20% of parasites remaining))
Heterakis spumosa; 0.1 mg/kg
  anthelmintic activity score (scale 0-3): 3
Heterakis spumosa; 0.25 mg/kg
  anthelmintic activity score (scale 0-3): 3
Heterakis spumosa; 0.5 mg/kg
  anthelmintic activity score (scale 0-3): 3
Heterakis spumosa; 1 mg/kg
  anthelmintic activity score (scale 0-3): 3
[1]; 10 ppm in citrated cow's blood
  mortality of fleas: 50%
[1]; [3]
  mortality of fleas: 100%
Artemia salina
  A.S. minimum inhibitory concentration (MIC) required to give Indication 2 (or 3): 0.01 µg/mL

## CCC(C)C1OC2(C=CC1C)CC1CC(CC=C(C)C(OC3CC(OC)C(OC4CC(OC)C(=CC(=O)OC)C(C)O4)C(C)O3)C(C)C=CC=C3COC4C(O)C(C)=CC(C(=O)O1)C34O)O2 (stereo not shown) [Compound 7]
Caenorhabditis elegans
  C.E. minimum inhibitory concentration (MIC) required to give Indication 2 (or 3): 0.01 µg/mL
[1]; 10 ppm in citrated cow's blood
  mortality of fleas: 61%
[1]; [3]
  mortality of fleas: 99%
Artemia salina
  A.S. minimum inhibitory concentration (MIC) required to give Indication 2 (or 3): 0.002 µg/mL
Lucilia cuprina larvae; 1 ppm
  development-inhibiting activity (100% = no flies have hatched): 100%
Lucilia cuprina larvae; 10 ppm
  development-inhibiting activity (100% = no flies have hatched): 100%
Lucilia cuprina larvae; 100 ppm
  development-inhibiting activity (100% = no flies have hatched): 100%

## CCC(C)C1OC2(C=CC1C)CC1CC(CC=C(C)C(OC3CC(OC)C(OC4CC(OC)C(=CCOC(=O)c5cccnc5)C(C)O4)C(C)O3)C(C)C=CC=C3COC4C(O)C(C)=CC(C(=O)O1)C34O)O2 (stereo not shown) [Compound 21]
Caenorhabditis elegans
  C.E. minimum inhibitory concentration (MIC) required to give Indication 2 (or 3): 0.01 µg/mL
Artemia salina
  A.S. minimum inhibitory concentration (MIC) required to give Indication 2 (or 3): 0.002 µg/mL
Lucilia cuprina larvae; 1 ppm
  development-inhibiting activity (100% = no flies have hatched): 100%
Lucilia cuprina larvae; 10 ppm
  development-inhibiting activity (100% = no flies have hatched): 100%
Lucilia cuprina larvae; 100 ppm
  development-inhibiting activity (100% = no flies have hatched): 100%

## CCC(C)C1OC2(C=CC1C)CC1CC(CC=C(C)C(OC3CC(OC)C(OC4CC(OC)C(=CCOC5CCCCO5)C(C)O4)C(C)O3)C(C)C=CC=C3COC4C(O)C(C)=CC(C(=O)O1)C34O)O2 (stereo not shown) [Compound 31]
Caenorhabditis elegans
  C.E. minimum inhibitory concentration (MIC) required to give Indication 2 (or 3): 0.05 µg/mL
Heterakis spumosa; 0.1 mg/kg
  anthelmintic activity score (scale 0-3): 2 (2 effective (<20% of parasites remaining))
Heterakis spumosa; 0.25 mg/kg
  anthelmintic activity score (scale 0-3): 2 (2 effective (<20% of parasites remaining))
Heterakis spumosa; 0.5 mg/kg
  anthelmintic activity score (scale 0-3): 3
Heterakis spumosa; 1 mg/kg
  anthelmintic activity score (scale 0-3): 3
Artemia salina
  A.S. minimum inhibitory concentration (MIC) required to give Indication 2 (or 3): 0.01 µg/mL

## CCC(C)C1OC2(C=CC1C)CC1CC(CC=C(C)C(OC3CC(OC)C(OC4CC(OC)C(=CC(=O)O)C(C)O4)C(C)O3)C(C)C=CC=C3COC4C(=NO)C(C)=CC(C(=O)O1)C34O)O2 (stereo not shown) [Compound 58]
[1]; 10 ppm in citrated cow's blood
  mortality of fleas: 73%
[1]; [3]
  mortality of fleas: 100%
Nematospiroides dubius; 0.5 mg/kg
  anthelmintic activity score (scale 0-3): 3
Nematospiroides dubius; 1 mg/kg
  anthelmintic activity score (scale 0-3): 3

## CCC(C)C1OC2(C=CC1C)CC1CC(CC=C(C)C(OC3CC(OC)C(OC4CC(OC)C(=CC=CC(=O)O)C(C)O4)C(C)O3)C(C)C=CC=C3COC4C(O)C(C)=CC(C(=O)O1)C34O)O2 (stereo not shown) [Compound 66]
[2]; 1 ppm
  activity (100% = all of the cockroach larvae destroyed): 75%
[2]; 10 ppm
  activity (100% = all of the cockroach larvae destroyed): 100%
[2]; 100 ppm
  activity (100% = all of the cockroach larvae destroyed): 100%

## CCC(C)C1OC2(CC3CC(CC=C(C)C(OC4CC(OC)C(OC5CC(OC)C(=CC(=O)OC)C(C)O5)C(C)O4)C(C)C=CC=C4COC5C(O)C(C)=CC(C(=O)O3)C45O)O2)CC(O)C1C (stereo not shown) [Compound 78]
[2]; 1 ppm
  activity (100% = all of the cockroach larvae destroyed): 50%
[2]; 10 ppm
  activity (100% = all of the cockroach larvae destroyed): 50%
[2]; 100 ppm
  activity (100% = all of the cockroach larvae destroyed): 100%
